Columns and labels:
PC-3 cells = experiment: In vitro anti-proliferative MTT assay; format: cell-based, human; settings: for GI50: Homo sapiens, PC-3 cells, MTT, 96 h; for antiproliferative activity against human prostate cancer PC-3 cells: result in words
Procedure: As for Pin1 was overexpressed in human prostate cancer cells, the antiproliferative activity of these benzimidazole derivatives against PC-3 cells were further evaluated by MTT assay. Meanwhile, the polar surface area (PSA) of these compounds was calculated under the optimal conformation since PSA is the key indicator of membrane permeability.
The tested cells were plated in 96-well microtiter plates with a density of 2,000 cells/well and incubated in a humidified atmosphere with 5% CO2 at 37 °C for 24 h. The cells were then exposed to tested compounds of different concentrations in triplicate. After incubated for 96 h, 50 μL of 3-(4,5-dimethylthiazol-2-yl)-2,5-diphenyltetrazolium bromide (MTT) solution (2 mg/mL) was added to each well and incubated for an additional 4 h. Then the suspernatant was discarded and the fromazan was dissolved in 200 μL of dimethyl sulfoxide (DMSO). The plate was oscillated subtly at room temperature for 10 min before the absorbance was measured at 570 nm by a microplate reader. Cell inhibitory ratio was calculated with the following formula:Inhibitory Rate (%) = [(Acontrol − Atreated)/Acontrol] × 100%(1)
The GI50 was determined as the concentration that caused half inhibition of cell proliferation. All experiments were performed three times independently, and the results were reported presented as the mean.

Pin1 = molecular target: T1, Pin1 (Homo sapiens, UniProt Q13526); experiment: Pin1 inhibition, protease-coupled assay; format: biochemical; settings: 10 °C; for inhibition at 10 µM: Pin1, compound at 10 μM; for IC50: Pin1, protease-coupled assay
T1 construct: purchased Sino Biological Inc., Beijing, China
Procedure: To investigate the Pin1 inhibitory potency of all synthesized compounds, the inhibition ratio at 10 μM or IC50 of all synthesized compounds was determined using protease-coupled assay.
Pin1 inhibitory activities were measured at 10 °C by protease-coupled assay as reported previous. Suc-Ala-Glu-cis-Pro-Phe-4-nitroaniline (Bachem, Bubendorf, Switzerland) in 0.47 mol/L, LiCl/trifluoroethanol was used as the substrate. The assay buffer (860 μL of 35 mM HERES at pH 7.8), Pin1 (20 μL, Bought from Sino Biological Inc., Beijing, China) and target compounds (10 μL of varying comcentrations in DMSO) were pre-equilibtated in the cuvette at 10 °C for 30 min. Then, 150 uL of ice-cooled chymotrypsin (60 mg/mL in 0.001 M/HCl) was added and mixed immediately. Additional substrate (40 μL) was added to start the assay and the reaction was monitored by absorbance at 390 nm for 90 s. For each compound, four concentrations (10 μM, 3.3 μM, 1.1 μM, 0.37 μM) were chosen, and the assay was performed in duplicate. The data was analyzed by Graphpad Prism 6.0.

T1 sequence (Q13526 whole entry): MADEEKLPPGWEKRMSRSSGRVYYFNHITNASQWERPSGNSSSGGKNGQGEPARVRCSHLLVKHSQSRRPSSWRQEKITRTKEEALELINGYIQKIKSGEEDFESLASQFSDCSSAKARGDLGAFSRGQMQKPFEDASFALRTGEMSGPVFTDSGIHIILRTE

SMILES | GI50 (PC-3 cells) [µM] | melting point [°C] | inhibition at 10 µM (Pin1) [%] | antiproliferative activity against human prostate cancer PC-3 cells (PC-3 cells) | IC50 (Pin1) [nM]
COc1cccc(NC(=O)CCn2c(-c3nc(C(=O)O)cs3)nc3ccccc32)c1 [Compound 13d, 2-(1-(3-((3-Methoxyphenyl)amino)-3-oxopropyl)-1H-benzo[d]imidazol-2-yl)thiazole-4-carboxylic acid] | > 50 | 223 to 225 | 75 | – | –
O=C(CCn1c(-c2nc(C(=O)O)cs2)nc2ccccc21)Nc1ccccc1 [Compound 13a, 2-(1-(3-Oxo-3-(phenylamino)propyl)-1H-benzo[d]imidazol-2-yl)thiazole-4-carboxylic acid] | > 50 | 226 to 228 | 73 | – | –
O=C(O)/C=C/c1nc2ccccc2n1CCC(=O)NCCc1ccc(Br)cc1 [Compound 6k, (E)-3-(1-(3-((4-Bromophenethyl)amino)-3-oxopropyl)-1H-benzo[d]imidazol-2-yl)acrylic acid] | > 50 | 203 to 205 | 62 | – | –
Cc1cc(C)c(NC(=O)CCn2c(/C=C/C(=O)O)nc3ccccc32)c(C)c1 [Compound 6o, (E)-3-(1-(3-((2,4,6-Trimethylphenyl)amino)-3-oxopropyl)-1H-benzo[d]imidazol-2-yl)acrylic acid] | 11.1 | 275 to 278 | 84 | moderate antiproliferative activity | 970
O=C(O)/C=C/c1nc2ccccc2n1CCC(=O)Nc1ccc(Br)cc1 [Compound 6g, (E)-3-(1-(3-((4-Bromophenyl)amino)-3-oxopropyl)-1H-benzo[d]imidazol-2-yl)acrylic acid] | 14.1 | 192 to 194 | 66 | moderate antiproliferative activity | 1730
O=C(O)/C=C/c1nc2ccccc2n1CCC(=O)Nc1ccccc1 [Compound 6c, (E)-3-(1-(3-Oxo-3-(phenylamino)propyl)-1H-benzo[d]imidazol-2-yl)acrylic acid] | > 50 | 228 to 230 | 46 | – | –
O=C1C=CC(=O)c2c(O)cccc21 [Juglone, reference compound] | 4.89 | – | – | – | 10000
O=C(O)CCc1nc2ccccc2n1CCC(=O)Nc1ccc(Cl)cc1 [Compound 7b, 3-(1-(3-((4-Chlorophenyl)amino)-3-oxopropyl)-1H-benzo[d]imidazol-2-yl)propanoic acid] | > 50 | 66 to 68 | 31 | – | –
O=C(CCn1c(-c2nc(C(=O)O)cs2)nc2ccccc21)Nc1cccc(Br)c1 [Compound 13b, 2-(1-(3-((3-Bromophenyl)amino)-3-oxopropyl)-1H-benzo[d]imidazol-2-yl)thiazole-4-carboxylic acid] | > 50 | 210 to 212 | 87 | – | 890
O=C(O)/C=C/c1nc2ccccc2n1CCC(=O)N1CCCCC1 [Compound 6a, (E)-3-(1-(3-oxo-3-(piperidin-1-yl)propyl)-1H-benzo[d]imidazol-2-yl)acrylic acid] | > 50 | 128 to 130 | 28 | – | –
O=C(CCn1c(-c2nc(C(=O)O)cs2)nc2ccccc21)Nc1ccc(C(F)(F)F)cc1 [Compound 13h, 2-(1-(3-Oxo-3-((4-(trifluoromethyl)phenyl)amino)propyl)-1H-benzo[d]imidazol-2-yl)thiazole-4-carboxylic acid] | > 50 | 176 to 178 | 81 | – | 1150
Cc1ccc(NC(=O)CCn2c(CCC(=O)O)nc3ccccc32)cc1 [Compound 7a, 3-(1-(3-Oxo-3-(p-tolylamino)propyl)-1H-benzo[d]imidazol-2-yl)propanoic acid] | > 50 | 66 to 68 | 60 | – | –
COc1ccc(CNC(=O)CCn2c(/C=C/C(=O)O)nc3ccccc32)cc1 [Compound 6l, (E)-3-(1-(3-((4-Methoxybenzyl)amino)-3-oxopropyl)-1H-benzo[d]imidazol-2-yl)acrylic acid] | > 50 | 203 to 205 | 42 | – | –
O=C(O)/C=C/c1nc2ccccc2n1CCC(=O)Nc1ccc(Cl)cc1 [Compound 6f, (E)-3-(1-(3-((4-Chlorophenyl)amino)-3-oxopropyl)-1H-benzo[d]imidazol-2-yl)acrylic acid] | > 50 | 158 to 160 | 54 | – | –
Cc1ccc(NC(=O)CCn2c(-c3nc(C(=O)O)cs3)nc3ccccc32)cc1F [Compound 13j, 2-(1-(3-((3-Fluoro-4-methylphenyl)amino)-3-oxopropyl)-1H-benzo[d]imidazol-2-yl)thiazole-4-carboxylic acid] | > 50 | 204 to 206 | 72 | – | –
COc1cc(NC(=O)CCn2c(/C=C/C(=O)O)nc3ccccc32)cc(OC)c1 [Compound 6i, (E)-3-(1-(3-((3,5-dimethoxyphenyl)amino)-3-oxopropyl)-1H-benzo[d]imidazol-2-yl)acrylic acid] | > 50 | 203 to 204 | 60 | – | –
O=C(CCn1c(-c2nc(C(=O)O)cs2)nc2ccccc21)Nc1ccccc1Br [Compound 13c, 2-(1-(3-((2-Bbromophenyl)amino)-3-oxopropyl)-1H-benzo[d]imidazol-2-yl)thiazole-4-carboxylic acid] | > 50 | 186 to 188 | 79 | – | –
COc1cc(NC(=O)CCn2c(-c3nc(C(=O)O)cs3)nc3ccccc32)cc(OC)c1 [Compound 13e, 2-(1-(3-((3,5-Dimethoxyphenyl)amino)-3-oxopropyl)-1H-benzo[d]imidazol-2-yl)thiazole-4-carboxylic acid] | > 50 | 208 to 210 | 79 | – | –
O=C(CCn1c(-c2nc(C(=O)O)cs2)nc2ccccc21)Nc1cccc([N+](=O)[O-])c1 [Compound 13f, 2-(1-(3-((3-Nitrophenyl)amino)-3-oxopropyl)-1H-benzo[d]imidazol-2-yl)thiazole-4-carboxylic acid] | > 50 | 234 to 236 | 40 | – | –
COc1ccc(CCNC(=O)CCn2c(/C=C/C(=O)O)nc3ccccc32)cc1 [Compound 6m, (E)-3-(1-(3-((4-Methoxyphenethyl)amino)-3-oxopropyl)-1H-benzo[d]imidazol-2-yl)acrylic acid] | > 50 | 219 to 220 | 49 | – | –
O=C(O)/C=C/c1nc2ccccc2n1CCC(=O)Nc1cc(Cl)cc(Cl)c1 [Compound 6n, (E)-3-(1-(3-((3,5-Dichlorophenyl)amino)-3-oxopropyl)-1H-benzo[d]imidazol-2-yl)acrylic acid] | 20.3 | 152 to 154 | 71 | moderate antiproliferative activity | 1870
Cc1ccc(NC(=O)CCn2c(/C=C/C(=O)O)nc3ccccc32)cc1 [Compound 6d, (E)-3-(1-(3-Oxo-3-(p-tolylamino)propyl)-1H-benzo[d]imidazol-2-yl)acrylic acid] | 17.4 | 221 to 222 | 75 | moderate antiproliferative activity | 1650
COc1ccc(NC(=O)CCn2c(/C=C/C(=O)O)nc3ccccc32)cc1 [Compound 6e, (E)-3-(1-(3-((4-Methoxyphenyl)amino)-3-oxopropyl)-1H-benzo[d]imidazol-2-yl)acrylic acid] | > 50 | 215 to 217 | 48 | – | –
Cc1cc(C)c(NC(=O)CCn2c(CCC(=O)O)nc3ccccc32)c(C)c1 [Compound 7c, 3-(1-(3-(Mesitylamino)-3-oxopropyl)-1H-benzo[d]imidazol-2-yl)propanoic acid] | 28.6 | 222 to 224 | 60 | moderate antiproliferative activity | –
